Experimental data: patent US6828294B2, “High retention sanitizer systems” (FMC Corporation, priority 2001, dated 2004)

Experiments:
[1] = Stability of PAA in compositions and in presence of chelators (PAA test strips); conditions: for PAA present immediately after preparation of the solution / time after which no PAA was detectable: chelator plus 0.170 g of 5% PAA in 100 g DI water, PAA test strips
Procedure: A sanitizer composition containing 0.25% SLS, 0.05% LA, 0.125% magnesium sulfate, and 85 ppm PAA was prepared in the 300 ppm total hardness water described in Example 8. This solution was applied to a stainless steel cabinet (34.5 in.×72 in.) in the meat pilot plant with a FOAM-IT® 5 unit using the driest foam setting.
This Example illustrates the effect of chelating agent on sanitizer compositions. The amount of chelator added is intended to chelate a concentration of ions corresponding to 300 ppm hard water, which corresponds to 3 millimolar. Because water will often have a hardness of less than 300 ppm, leaving an excess of chelator, it is important to evaluate the stability of PAA with respect to the chelator. The excess chelator could cause increases in pH, which would decrease the amount of PAA present according to the reaction (Preparation, Properties, Reactions and Uses of Organic Peracids and their Salts, FMC Corporation, Inorganic Chemicals Division, New York, N.Y., 1964, p. 34):
Therefore, in anticipation of the worst case where soft water is used to prepare the solution from which the foam is generated, the stability of PAA in the presence of at least 3 millimolar of chelator was evaluated.
0.125 g of Na4EDTA and 0.170 g of 5% PAA were added to 100 g of DI water.
0.161 g of Na3EDTA and 0.170 g of 5% PAA were added to 100 g of DI water.
0.233 g of Na2EDTA and 0.170 g of 5% PAA were added to 100 g of DI water.

pH of solutions = format: physicochemical; conditions: chelator solutions in DI water in the absence of PAA, pH test paper
[2] = Turbidity of lauryl sulfate solutions in hard water (Example 8); format: physicochemical
Procedure: When a 0.25% MLS solution was prepared in water containing 333 ppm of calcium chloride, the solution became turbid after about 2 min.
Hard water contains both magnesium and calcium ions. For a 300 ppm total hardness (expressed as calcium carbonate), there is about 200 ppm hardness as calcium and 100 ppm hardness as magnesium (AOAC Official Methods of Analysis, 1995, Chapter 6, p. 10). […] When 0.25% solution of MLS was prepared in 300 ppm total hardness water containing calcium and magnesium ions in this ratio, the solution became turbid after about 5 minutes.

[3] = 0.25% solution in 300 ppm total hardness water containing calcium and magnesium ions
[4] = 0.25% solution in water containing 333 ppm of calcium chloride

Row | Compound | PAA present immediately after preparation of the solution [1] | pH (pH of solutions) | stability of PAA in the presence of the chelator [1] | further results
1 | O=C([O-])CN(CCN(CC(=O)[O-])CC(=O)[O-])CC(=O)[O-].[Na+].[Na+].[Na+].[Na+] [Na4EDTA] | no PAA present | 10 | – | –
2 | O=P([O-])(O)CN(CCN(CCN(CP(=O)(O)O)CP(=O)(O)O)CP(=O)(O)O)CP(=O)(O)O.[Na+] [DEQUEST 2066] | – | – | not found any chelator in salt form in which PAA is stable | –
3 | sodium salts of diethylene triamine pentaacetic acid | – | – | rapidly decomposes | –
4 | CCCCCCCCCCCCOS(=O)(=O)[O-].[Na+] [SLS, Sodium lauryl sulfate] | – | – | – | time until solution became turbid [2, 3]: immediately became turbid; time until solution became turbid [2, 4]: instantly became turbid
5 | Magnesium lauryl sulfate [MLS] | – | – | – | time until solution became turbid [2, 3]: about 5 minutes; time until solution became turbid [2, 4]: about 2 min
6 | O=C([O-])CN(CCN(CC(=O)[O-])CC(=O)O)CC(=O)[O-].[Na+].[Na+].[Na+] [Na3EDTA] | at least 50 ppm | 7.5 | – | time after which no PAA was detectable [1]: ~5 min
7 | O=C([O-])CN(CCN(CC(=O)[O-])CC(=O)[O-])CCN(CC(=O)[O-])CC(=O)[O-].[Na+].[Na+].[Na+].[Na+].[Na+] [pentasodium salt of diethylenetriaminepentaacetic acid] | – | – | not found any chelator in salt form in which PAA is stable | –
8 | CC(O)(P(=O)(O)O)P(=O)(O)O [DEQUEST® 2010, 1-hydroxyethylidene-1,1-diphosphonic acid] | – | – | stable | –
9 | O=C([O-])CN(CCN(CC(=O)[O-])CC(=O)O)CC(=O)O.[Na+].[Na+] [Na2EDTA] | at least 50 ppm | 4 | – | time after which no PAA was detectable [1]: ~10 min
